In data set [1] the test system is X4 recombinant HIV (NL4.3-Ren). The conditions noted are these: for SI: selectivity index (CC50/IC50): CC50 MT-2 / IC50 HIV NL4.3-Ren.
The nature of a further data set: in vitro. Conditions: human.
Data set [2] relates to X4 recombinant HIV (NL4.3-Ren). Description: microbe, parasite or virus in culture.
The subject of data set [3] is HIV transcription (pNL4.3-Luc). The data set is described as follows: cells. The class given is cell-based, HIV-1. Conditions: for IC50: Human immunodeficiency virus 1, MT2, 48 h, read-out: IC50 viral transcription; for SI HIV transcription/HIV infection (specificity index): IC50 transcription / IC50 HIV infection; for effect on HIV transcription (in words): MT-2 cells transfected with NL4.3-Luc, 0.7 to 100 μM.

The test system of data set [4] is VSV pseudotyped HIV (VSV-HIV).
The subject of data set [5] is VSV pseudotyped HIV (VSV-HIV). Description: microbe, parasite or virus in culture. Conditions: Vesicular stomatitis virus, MT2, 48 h, read-out: IC50 VSV-HIV.
[6] abbreviates: Human immunodeficiency virus 1, MT2, 48 h, read-out: IC50 (CI95%; R^2) anti-HIV activity, MT-2 cells, NL4.3-Ren, 48 h, mean of at least three independent experiments.
Where [7] appears, read: Human immunodeficiency virus 1, MT2, read-out: IC50 HIV, MT-2 cells, HIV infection, values repeated from Table 3 (more decimals).

Read-outs that look alike come from different tables or passages of the source.

Take `C=C1C(=O)O[C@@H]([C@@H](C)[C@]2(O)C[C@H](OC(C)=O)[C@]3(O)[C@@H]4C[C@H]5O[C@]56CC=CC(=O)[C@]6(C)[C@H]4CC[C@@]32C)C[C@]1(C)O` [Compound 2, 15α-acetoxy-5β,6β-epoxy-14β,17β,24α-trihydroxy-1-oxo-witha-2,25(27)-dien-26,22-olide]: the “SI: selectivity index (CC50/IC50)” value in data set [1] is reported as more than 5.3. Also, the CC50 in the data set “in vitro” was more than 100 µM. For the same compound, the half-inhibitory concentration (IC50) in data set [2] (setting [6]) turned out to be 18.7 µM.
Take `CC(=O)O[C@H]1[C@@H]2O[C@]2([C@H](C)[C@H]2CC(C)=C(C)C(=O)O2)[C@@]2(C)CC[C@H]3[C@@H](C[C@H]4O[C@]45[C@@H](O)C=CC(=O)[C@]35C)[C@@]12O` [Compound 13, physagulin F]: the IC50 in data set [3] was 1.14 µM; in data set [2] (setting [6]), less than 2 µM; in data set [2] (setting [7]) it was 1.01 µM; in data set [5], 2.67 µM. Besides, the “SI HIV transcription/HIV infection (specificity index)” value in data set [3] came out at 1.13. The “effect on HIV transcription (in words)” value in data set [3] was “inhibited HIV transcription”. Further, in data set [1], the “SI: selectivity index (CC50/IC50)” value amounted to 15.5. The “SI VSV-HIV/HIV (specificity index)” value in data set [4] is 2.66. This compound also gave a CC50 in the data set “in vitro” of 15.2 µM.
In the case of `CC(=O)O[C@H]1C=C([C@H](C)[C@H]2CC(C)=C(C)C(=O)O2)[C@@]2(C)CC[C@H]3[C@@H](C[C@@H](O)[C@@]4(Cl)CC=CC(=O)[C@]34C)[C@]12O` [Compound 9, physagulin B], the “SI: selectivity index (CC50/IC50)” value in data set [1] is more than 11.2. In addition, the CC50 in “in vitro” was more than 100 µM. For the same compound, the IC50 in data set [2] (setting [6]) worked out at 8.9 µM.
`C[C@H](Cn1cnc2c(N)ncnc21)OCP(=O)(O)O` [TFV, tenofovir, reference compound] yielded a CC50 in “in vitro” of more than 100 µM. The IC50 in data set [2] (setting [6]) came to 1.7 µM; in data set [2] (setting [7]), 1.69 µM.
In the case of `CC(=O)O[C@H]1C[C@H]([C@H](C)[C@H]2CC(C)=C(C)C(=O)O2)[C@@]2(C)CC[C@H]3[C@@H](C[C@@H](O)[C@@]4(O)CC=CC(=O)[C@]34C)[C@@]12O` [Compound 10, physagulin J], the “SI: selectivity index (CC50/IC50)” value in data set [1] is given as more than 3.1. The compound further returned a CC50 in “in vitro” of more than 100 µM. In addition, the half-maximal inhibitory concentration (IC50) in data set [2] (setting [6]) stood at 32.7 µM.
Regarding `CC(=O)O[C@H]1C=C([C@H](C)[C@H]2CC(C)=C(C)C(=O)O2)[C@@]2(C)CC[C@H]3[C@@H](C[C@H]4O[C@]45CC=CC(=O)[C@]35C)[C@@]12O` [Compound 7, physagulin A], the half-maximal inhibitory concentration (IC50) in data set [3] is 1.97 µM; in data set [2] (setting [6]) it was less than 2 µM; in data set [2] (setting [7]), 1.94 µM; in data set [5] it was 3.2 µM. Besides, the “SI HIV transcription/HIV infection (specificity index)” value in data set [3] came to 1.02. For the same compound, the “effect on HIV transcription (in words)” value in data set [3] is listed as “inhibited HIV transcription”. Also, in data set [1] (IC50 ratio versus compound 5), the “fold more potent (antiviral effect) than 17β-hydroxy-withanolide 5” value was more than 50 fold. Further, the “fold more potency (anti-HIV) than dihydroxy compound 8” value in data set [1] (IC50 ratio versus compound 8) was determined as 35.7 fold. In addition, the “fold more potency (anti-HIV) than halohydrin 9” value in data set [1] (IC50 ratio versus compound 9) turned out to be 4.7 fold. The “SI VSV-HIV/HIV (specificity index)” value in data set [4] is listed as 1.64. The CC50 in “in vitro” was found to be 16 µM.
As to `CC(=O)O[C@H]1C=C([C@H](C)[C@H]2CC(C)=C(C)C(=O)O2)[C@@]2(C)CC[C@H]3[C@@H](C[C@@H](O)[C@@]4(O)CC=CC(=O)[C@]34C)[C@]12O` [Compound 8, withaminimin], the “SI: selectivity index (CC50/IC50)” value in data set [1] was more than 1.5. This compound came in with a CC50 in the data set “in vitro” of more than 100 µM. Moreover, in data set [2] (setting [6]), the IC50 is 67.9 µM.
Regarding enfuvirtide, the 50% inhibitory concentration (IC50) in data set [1] (read-out: IC50 HIV, MT-2 cells, HIV infection, values repeated from Table 3 (more decimals)) was 0.015 µM. In addition, the “activity as VSV-HIV inhibitor (in words)” value in data set [4] is listed as “not active”. In data set [4] (VSV pseudotyped (VSV-, 48 h)), the half-maximal inhibitory concentration (IC50) was more than 1 µM and the “SI VSV-HIV/HIV (specificity index)” value was more than 66.67.
Take `CC(=O)O[C@H]1C=C([C@H](C)[C@H]2CC(C)=C(C)C(=O)O2)[C@@]2(C)CC[C@H]3[C@@H](C[C@@H](O)[C@]45C=C[C@H](OO4)C(=O)[C@]35C)[C@@]12O` [Compound 3, 15α-acetoxy-6β,14β-dihydroxy-1-oxo-2α,5α-dioxy-witha-3,16,24-trien-26,22-olide]: the “SI: selectivity index (CC50/IC50)” value in data set [1] is recorded as more than 1.3. Moreover, the CC50 in the data set “in vitro” is more than 100 µM. In data set [2] (setting [6]), the 50% inhibitory concentration (IC50) amounted to 76.1 µM.
In the data set “in vitro”, `CC(=O)O[C@H]1C[C@@](O)([C@H](C)[C@H]2CC(C)=C(C)C(=O)O2)[C@@]2(C)CC[C@H]3[C@@H](C[C@H]4O[C@]45CC=CC(=O)[C@]35C)[C@@]12O` [Compound 5, physagulide I] registered a CC50 of more than 100 µM. Moreover, in data set [2] (setting [6]), the IC50 is more than 100 µM.
In the case of `C=C1C(=O)O[C@@H]([C@@H](C)[C@]2(O)C[C@H](OC(C)=O)[C@]3(O)[C@@H]4C[C@H]5O[C@]56CC=CC(=O)[C@]6(C)[C@H]4CC[C@@]32C)C[C@@]1(C)O` [Compound 1, 15α-acetoxy-5β,6β-epoxy-14β,17β,24β-trihydroxy-1-oxo-witha-2,25(27)-dien-26,22-olide], the “SI: selectivity index (CC50/IC50)” value in data set [1] was more than 8. This compound returned a CC50 in “in vitro” of more than 100 µM. The IC50 in data set [2] (setting [6]) was 12.4 µM.
Taken in the same sequence, the figures for `CC(=O)O[C@H]1[C@@H]2O[C@]2([C@H](C)[C@H]2CC(C)=C(C)C(=O)O2)[C@@]2(C)CC[C@H]3[C@@H](C[C@@H](O)[C@@]4(O)CC=CC(=O)[C@]34C)[C@@]12O` [Compound 12, physagulin C] were more than 4.7, more than 100 µM and 21.1 µM.
On to `CC(=O)O[C@H]1[C@@H]2O[C@]2([C@H](C)[C@H]2CC(C)=C(C)C(=O)O2)[C@@]2(C)CC[C@H]3[C@@H](C[C@@H](O)[C@]45C=C[C@H](OO4)C(=O)[C@]35C)[C@@]12O` [Compound 4, 15α-acetoxy-16β,17β-epoxy-6β,14β-dihydroxy-1-oxo-2α,5α-dioxy-witha-3,24-dien-26,22-olide], for which the “SI: selectivity index (CC50/IC50)” value in data set [1] is recorded as more than 1.4. In the data set “in vitro”, this compound gave a CC50 of more than 100 µM. For the same compound, in data set [2] (setting [6]), the concentration for half-maximal inhibition (IC50) turned out to be 72.7 µM.

The record behind these values is article PMC8946265, “Withanolide-Type Steroids from Physalis nicandroides Inhibit HIV Transcription” (Journal of Natural Products, 2021).
